Reference: publication PMC3265452 (PLoS Neglected Tropical Diseases, 2012)
Counter-ions that a name gives are not always drawn.

Each molecule was assayed against AaDOP2 (Aedes aegypti, UniProt H6D5H2) (assay: AaDOP2 antagonist screen of the LOPAC1280 library (HEK-CRELuc-Aadop2 cells, luminescence)). Conditions: not given.
Assay type: cell-based

Chain of AaDOP2 (H6D5H2 1-476): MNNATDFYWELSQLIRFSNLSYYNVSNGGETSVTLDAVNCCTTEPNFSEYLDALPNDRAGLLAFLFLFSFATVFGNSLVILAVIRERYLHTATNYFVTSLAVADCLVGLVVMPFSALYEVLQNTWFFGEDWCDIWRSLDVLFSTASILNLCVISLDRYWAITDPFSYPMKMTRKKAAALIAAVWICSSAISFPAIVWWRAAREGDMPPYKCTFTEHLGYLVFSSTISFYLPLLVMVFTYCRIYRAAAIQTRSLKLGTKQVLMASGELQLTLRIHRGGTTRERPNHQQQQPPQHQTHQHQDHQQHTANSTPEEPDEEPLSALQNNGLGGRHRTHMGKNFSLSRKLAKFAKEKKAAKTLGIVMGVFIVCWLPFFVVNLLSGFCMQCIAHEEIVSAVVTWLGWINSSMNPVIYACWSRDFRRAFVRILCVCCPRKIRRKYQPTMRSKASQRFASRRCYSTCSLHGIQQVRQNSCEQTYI

| SMILES | Compound effect (percent receptor signaling in presence of test compound, relative lux units relative to the SCH23390 control) |
| --- | --- |
| CC(CCc1ccccc1)NC(C)C(O)c1ccc(O)cc1 (centres unmarked) [Compound 884, Nylidrin hydrochloride] | 86 |
| Cn1cnc2c(NC3CCCC3)ncnc21 [Compound 885, N6-Cyclopentyl-9-methyladenine] | 105 |
| Oc1ccc2c3c1O[C@H]1c4oc5ccccc5c4C[C@@]4(O)[C@@H](C2)N(CC2CC2)CC[C@]314 [Compound 886, Naltriben methanesulfonate] | 102 |
| O=C(O)CCCCCCC1C(=O)NC(=O)N1CCC(O)C1CCCCC1 (centres unmarked) [Compound 888, BW 245C] | 120 |
| C=CCN1CC[C@]23c4c5ccc(O)c4O[C@H]2/C(=N/NC(=O)c2ccccc2)CC[C@@]3(O)[C@H]1C5 [Compound 889, Naloxone benzoylhydrazone] | 101 |
| O=c1[nH]c2cc(C(F)(F)F)ccc2n1-c1cc(C(F)(F)F)ccc1O [Compound 890, NS-1619] | 86 |
| C=CCN1CC[C@]23c4c5ccc(O)c4O[C@@H]2/C(=N/N=C2\CC[C@@]4(O)C6Cc7ccc(O)c8c7[C@@]4(CCN6CC=C)[C@@H]2O8)CC[C@@]3(O)C1C5.Cl.Cl [Compound 891, Naloxonazine dihydrochloride] | 86 |
| O=c1onc2n1-c1cc(Br)ccc1OC2 [Compound 893, NS 2028] | 98 |
| CCn1cc(C(=O)O)c(=O)c2cc3c(cc21)OCO3 [Compound 896, Oxolinic acid] | 108 |
| Cn1cnc2c(NCc3ccccc3)nc(NCCO)nc21 [Compound 897, Olomoucine] | 47 |
| CCCCCCCC/C=C\CCCCCCCC(=O)O [Compound 898, Oleic Acid] | 95 |
| Cc1cc(C(C)(C)C)c(O)c(C)c1CC1=NCCN1 [Compound 899, Oxymetazoline hydrochloride] | 84 |
| NC(=O)C(=O)O [Compound 900, Sodium Oxamate] | 91 |
| CCN(CC)CC#CCOC(=O)C(O)(c1ccccc1)C1CCCCC1 (centres unmarked) [Compound 901, Oxybutynin Chloride] | 83 |
| NC(=O)CN1CC(O)CC1=O (centres unmarked) [Compound 902, Oxiracetam] | 101 |
| C[C@@H]1O[C@@H](O[C@H]2C[C@@H](O)[C@]3(CO)[C@H]4[C@H](O)C[C@]5(C)[C@@H](C6=CC(=O)OC6)CC[C@]5(O)[C@@H]4CC[C@]3(O)C2)[C@H](O)[C@H](O)[C@H]1O [Compound 903, Ouabain] | 50 |
| O=c1onc2cnc3ccccc3n12 [Compound 904, ODQ] | 98 |
| CC1COc2c(N3CCN(C)CC3)c(F)cc3c(=O)c(C(=O)O)cn1c23 (centres unmarked) [Compound 907, Ofloxacin] | 92 |
| O=C(O)/C=C/C(=O)O.O=C(O)/C=C/C(=O)O.O=C(O)/C=C/C(=O)O.O=C1CCCN1CC#CCN1CCCC1.O=C1CCCN1CC#CCN1CCCC1 [Compound 908, Oxotremorine sesquifumarate salt] | 88 |
| O=c1[nH]c2ccccc2n1CCCN1CCN(C(c2ccccc2)c2ccccc2)CC1 [Compound 909, Oxatomide] | 72 |
| Cn1cc(C2=C(c3ccc(Cl)cc3Cl)C(=O)NC2=O)c2ccccc21 [Compound 910, SB 216763] | 80 |
| O=C(O)CCc1nc(-c2ccccc2)c(-c2ccccc2)o1 [Compound 911, Oxaprozin] | 106 |
| C[N+](C)(C)CC#CCN1CCCC1=O [Compound 912, Oxotremorine methiodide] | 99 |
| CC(=O)[C@H]1CC[C@H]2[C@@H]3CCC4=CC(=O)CC[C@]4(C)[C@H]3CC[C@]12C [Compound 914, Progesterone] | 77 |
| CCCCCCCCCCCCCCCC(=O)NCCO [Compound 915, Palmitoylethanolamide] | 89 |
| N=C(N)c1ccc(OCCCCCOc2ccc(C(=N)N)cc2)cc1 [Compound 917, Pentamidine isethionate] | 87 |
| C=C1C(=O)O[C@H]2[C@H]1CC/C(C)=C/CC[C@@]1(C)O[C@@H]21 [Compound 919, Parthenolide] | 74 |
| CC(C)NCC(O)COc1cccc2[nH]ccc12 (centres unmarked) [Compound 920, Pindolol] | 96 |
| N#Cc1c(-c2ccccc2)no[n+]1[O-] [Compound 925, 4-Phenyl-3-furoxancarbonitrile] | 93 |
| CC(=O)CCCCn1c(=O)c2c(ncn2C)n(C)c1=O [Compound 926, Pentoxifylline] | 119 |

Same assay, conditions: 10 µM compound, 300 nM dopamine, 2 hr; hit = compound effect <20

| SMILES | Compound effect (percent receptor signaling in presence of test compound, relative lux units relative to the SCH23390 control) [%] |
| --- | --- |
| COc1ccccc1N1CCN(CC(O)COc2cccc3ccccc23)CC1.Cl.Cl (centres unmarked) [Compound 887, Naftopidil dihydrochloride] | 79 |
| NS(=O)(=O)c1cccc2c1c([N+](=O)[O-])cc1nc([O-])c([O-])nc12.[Na+].[Na+] [Compound 892, NBQX disodium] | 95 |
| CCCCCCCC/C=C\CCCCCCCC(=O)NCCO [Compound 895, N-Oleoylethanolamine] | 105 |
| N[C@@H](COP(=O)(O)O)C(=O)O [Compound 921, O-Phospho-L-serine] | 102 |
| CCCC(C(=O)OCCN(CC)CC)(c1ccccc1)c1ccccc1.Cl [Compound 923, SKF-525A hydrochloride] | 88 |
